{"source": "paper PMC8745601", "about": "(International Journal of Molecular Sciences, 2021)", "key": {"OCT2": {"biological_target": "T1, OCT2 (Homo sapiens, UniProt O15244)", "T1 sequence (O15244 1-555)": "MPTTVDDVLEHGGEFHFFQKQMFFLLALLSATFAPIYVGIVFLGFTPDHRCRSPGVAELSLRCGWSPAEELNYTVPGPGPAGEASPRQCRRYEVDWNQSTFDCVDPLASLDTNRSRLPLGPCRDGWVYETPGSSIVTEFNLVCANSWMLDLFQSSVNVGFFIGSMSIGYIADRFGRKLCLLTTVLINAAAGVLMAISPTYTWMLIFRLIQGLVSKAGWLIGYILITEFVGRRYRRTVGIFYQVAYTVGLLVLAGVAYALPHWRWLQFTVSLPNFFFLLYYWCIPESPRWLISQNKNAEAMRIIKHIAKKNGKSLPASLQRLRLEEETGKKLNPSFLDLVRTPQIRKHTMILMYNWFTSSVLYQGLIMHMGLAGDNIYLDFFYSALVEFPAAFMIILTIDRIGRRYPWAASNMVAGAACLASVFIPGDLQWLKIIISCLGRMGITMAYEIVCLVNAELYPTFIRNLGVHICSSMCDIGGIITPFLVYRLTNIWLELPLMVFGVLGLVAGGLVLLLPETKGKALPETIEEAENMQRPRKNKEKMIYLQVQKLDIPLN", "details": "MDCKII-OCT2", "protocol": "(§1) Cellular uptake studies: For all transport studies, cells were seeded in 24-well plates and incubated in a full growth medium at an initial density of 200,000 cells/well for 3 days. Before starting each transport experiment, cells were washed with a pre-warmed (37 °C) incubation buffer [64]. […] Protein concentration of whole cell lysate was determined to quantify cell density after each experiment using the BCA assay according to the manufacturer’s instructions (Pierce, Rockford, IL, USA).\n(§2) Statistical evaluation: All experiments were performed at least three times unless otherwise noted. The OATP1A2*1–*3 and OCT1-3 net uptake was obtained by subtracting the uptake into wild-type cells from that of the transporter-transfected cells. Km and Vmax were assessed using Prism 5.01 (GraphPad Software, San Diego, CA, USA). The differences in the doxorubcin uptake in OATP1A2*1–*3 and in OCT1-3 transfected cells were adjusted to the membranous transporter protein levels in the whole cell lysate. Km and Vmax are presented as arithmetic means ± standard deviation."}, "[1]": {"details": "during chemotherapy, no reference given, cited from earlier work"}, "OATP1A2*1": {"biological_target": "T2, OATP1A2*1 (Homo sapiens, UniProt P46721)", "T2 sequence (P46721 1-670)": "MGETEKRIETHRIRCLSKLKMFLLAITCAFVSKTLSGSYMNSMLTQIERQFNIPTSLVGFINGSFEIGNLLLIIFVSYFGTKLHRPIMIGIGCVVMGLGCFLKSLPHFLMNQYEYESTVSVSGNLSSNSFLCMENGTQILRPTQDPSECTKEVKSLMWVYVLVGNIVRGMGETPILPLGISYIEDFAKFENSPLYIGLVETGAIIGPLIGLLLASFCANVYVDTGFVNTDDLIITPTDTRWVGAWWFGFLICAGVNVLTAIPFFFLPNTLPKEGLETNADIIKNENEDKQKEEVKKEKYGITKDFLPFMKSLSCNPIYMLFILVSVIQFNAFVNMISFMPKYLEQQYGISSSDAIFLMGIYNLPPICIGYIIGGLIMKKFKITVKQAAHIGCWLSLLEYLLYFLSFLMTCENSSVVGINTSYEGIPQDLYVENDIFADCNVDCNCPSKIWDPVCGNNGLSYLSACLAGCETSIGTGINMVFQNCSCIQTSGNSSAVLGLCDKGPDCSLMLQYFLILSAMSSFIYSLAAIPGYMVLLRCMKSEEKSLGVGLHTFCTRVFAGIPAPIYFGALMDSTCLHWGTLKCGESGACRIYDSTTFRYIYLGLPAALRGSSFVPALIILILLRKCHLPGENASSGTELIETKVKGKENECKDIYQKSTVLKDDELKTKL", "experiment": "in vitro", "protocol": "as §1\n(§3) Protein abundance of OATP1A2*1–*3 and OCT1–3 were measured by mass spectrometry-based targeted proteomics using a validated LC-MS/MS method as recently described [65].\n200 μL of each cell lysate sample was mixed with 25 μL internal standard (5 µg/mL daunorubicin), 25 μL citric acid (1%), and 400 μL ice-cold acetonitrile for protein precipitation. […] The clear supernatant was transferred to HPLC vials. The measurement and quantitative evaluation were carried out using the LC-MS/MS system QTRAP 4000® (AB SCIEX, Darmstadt, Germany) and the Software Analyst® 1.4 (Applied Biosystems, Darmstadt, Germany).\nStatistical evaluation: All experiments were performed at least three times unless otherwise noted. The OATP1A2*1–*3 and OCT1-3 net uptake was obtained by subtracting the uptake into wild-type cells from that of the transporter-transfected cells. […]"}, "OCT1-3 and OATP1A2": {"system": "OCT1-3 and OATP1A2", "experiment": "in vitro", "details": "human, OATP1A2*1 and OCT1-3 transfected cells", "protocol": "as §1, §3\nStatistical evaluation: All experiments were performed at least three times unless otherwise noted. The OATP1A2*1–*3 and OCT1-3 net uptake was obtained by subtracting the uptake into wild-type cells from that of the transporter-transfected cells. Km and Vmax were assessed using Prism 5.01 (GraphPad Software, San Diego, CA, USA). […] Km and Vmax are presented as arithmetic means ± standard deviation."}, "OCT1": {"biological_target": "T3, OCT1 (Homo sapiens, UniProt O15245)", "T3 sequence (O15245 1-554)": "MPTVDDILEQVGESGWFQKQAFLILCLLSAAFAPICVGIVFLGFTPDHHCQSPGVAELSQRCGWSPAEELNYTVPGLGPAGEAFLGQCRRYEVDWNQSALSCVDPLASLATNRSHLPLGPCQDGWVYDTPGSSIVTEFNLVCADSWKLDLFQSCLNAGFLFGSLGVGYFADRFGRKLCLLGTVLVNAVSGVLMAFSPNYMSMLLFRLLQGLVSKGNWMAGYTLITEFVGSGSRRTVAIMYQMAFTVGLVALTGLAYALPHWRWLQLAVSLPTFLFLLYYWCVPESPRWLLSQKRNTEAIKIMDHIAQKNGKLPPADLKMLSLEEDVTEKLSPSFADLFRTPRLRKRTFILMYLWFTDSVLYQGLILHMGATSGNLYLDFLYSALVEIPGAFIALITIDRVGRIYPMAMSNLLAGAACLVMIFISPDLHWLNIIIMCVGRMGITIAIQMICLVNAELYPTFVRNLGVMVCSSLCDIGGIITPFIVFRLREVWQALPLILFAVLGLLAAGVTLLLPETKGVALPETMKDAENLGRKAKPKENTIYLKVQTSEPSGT", "details": "OCT1 affinity to doxorubicin; cited from earlier work"}, "OCT3": {"biological_target": "T4, OCT3 (Homo sapiens, UniProt O75751)", "T4 sequence (O75751 1-556)": "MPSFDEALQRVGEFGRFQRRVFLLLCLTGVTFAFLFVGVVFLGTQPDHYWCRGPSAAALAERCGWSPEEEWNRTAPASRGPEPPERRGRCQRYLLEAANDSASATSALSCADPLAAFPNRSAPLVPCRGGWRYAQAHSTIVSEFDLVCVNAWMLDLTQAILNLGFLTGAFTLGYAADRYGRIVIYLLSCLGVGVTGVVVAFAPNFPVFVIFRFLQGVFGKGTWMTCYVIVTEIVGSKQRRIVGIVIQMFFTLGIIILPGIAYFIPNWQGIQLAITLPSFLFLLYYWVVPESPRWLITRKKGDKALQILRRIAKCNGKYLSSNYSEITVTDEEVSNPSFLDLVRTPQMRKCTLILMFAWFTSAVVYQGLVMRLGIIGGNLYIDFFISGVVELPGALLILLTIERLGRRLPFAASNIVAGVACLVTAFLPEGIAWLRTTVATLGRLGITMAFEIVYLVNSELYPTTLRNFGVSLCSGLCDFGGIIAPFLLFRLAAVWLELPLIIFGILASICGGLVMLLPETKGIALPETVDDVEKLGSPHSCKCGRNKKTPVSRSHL", "experiment": "Doxorubicin uptake into MDCKII cells stably expressing OCT3", "protocol": "as §1, §2"}}, "note": "Where two headings read alike, the source gives them in different places."}
{"compound": "COc1cccc2c1C(=O)c1c(O)c3c(c(O)c1C2=O)C[C@@](O)(C(=O)CO)C[C@@H]3O[C@H]1C[C@H](N)[C@H](O)[C@H](C)O1", "note": "[doxorubicin, Doxorubicin]", "values": [{"measurement": "Vmax", "setting": "OCT2; doxorubicin 0–100 µmol/L, 3 min, mean ± SD", "result": "37.8 ± 11.1", "unit": "pmol/mg/min"}, {"measurement": "saturation of concentration-dependent OCT2-mediated uptake", "setting": "OCT2; incubation time 3 min, up to 100 µmol/L", "result": "not saturated"}, {"measurement": "plasma concentrations of doxorubicin", "setting": "[1]; conversion of 600 ng/mL", "result": "~ 1 µmol/L"}, {"measurement": "plasma concentrations of doxorubicin", "setting": "[1]", "result": "up to 600 ng/mL"}, {"measurement": "Km at 5 min", "setting": "OATP1A2*1; HEK293 cells stably expressing OATP1A2*1", "result": "7.49 ± 3.41", "unit": "µM"}, {"measurement": "microsomal CLint at 5 min", "setting": "OATP1A2*1; other cell line", "result": "4.71 ± 1.53", "unit": "µL/min/mg"}, {"measurement": "Km", "setting": "OCT1-3 and OATP1A2", "result": "5 to 13", "unit": "µM"}, {"measurement": "Km", "setting": "OCT1", "result": "~5", "unit": "µM"}, {"measurement": "Vmax", "setting": "OCT3; MDCKII-OCT3, doxorubicin 0–100 µmol/L, 3 min, mean ± SD", "result": "12.9 ± 3.60", "unit": "pmol/mg/min"}, {"measurement": "microsomal CLint at 3 min", "setting": "OCT3; human, mdck", "result": "0.99 ± 0.33", "unit": "µL/min/mg"}]}
